Data from patent US12714094B2, “Cryoprotectant polymers and methods of making and using thereof” (BOARD OF REGENTS, THE UNIVERSITY OF TEXAS SYSTEM, priority 2019, dated 2026).
Entries after “also recorded” stand apart in the source; their conditions may differ.

Experiment: Differential scanning calorimetry of polymer/water and polymer/PBS solutions (ice formation, Tg, phase behavior)
Assay type: physicochemical
Details: 50 wt % aqueous solution
Procedure: Differential Scanning calorimetry (DSC). DSC was used to determine the Tg of pure polymer and aqueous polymer solutions. PMGS is hygroscopic, so PMGS batches were dried in vacuo for at least four hours prior to sample preparation. Polymer solutions were made by mixing dry PMGS with phosphate buffer solution (PBS) and hand-mixing until a homogeneous solution was achieved. DSC samples were prepared by loading TZero pans with at least 5 mg of each solution and sealing them with hermetic lids to prevent evaporation. DSC samples of pure polymer were typically scanned from −20 to 120° C. four times, and the Tg was determined from the last heating cycle. DSC samples of polymer solutions were cooled to −90 and heated to 20° C., and the Tg was determined on the heating cycle.
Differential scanning calorimetry. For PMGS/water mixtures, 6-8 mg of solution was placed in an aluminum DSC pan. The samples were cooled at 1° C./min to −90° C., held at −90° C. for 1 minute, then heated to 20° C. at 10° C./min. For neat PMGS, the polymer was dried overnight under vacuum, then the polymer was removed from the vacuum and 5-10 mg was immediately transferred to an aluminum DSC pan. The sample was heated to 150° C. at 10° C./min, held for 1 min, then cooled to −10° C. at 10° C./min and held for 1 min. […]

For `C[S+](C)[O-]` [DMSO, dimethyl sulfoxide], which “ice formation (in words)” value is on record?
The value was “No ice formed; also recorded: enough to arrest ice formation in solution”.
